For orientation: IC50 means the concentration that inhibits the measured activity by half.

Structures can show the parent of a compound that is named as a salt. Where two headings read alike, the source gives them in different places. Where only a bound is given, the exact number is not on record here.

Assay [1] concerns NF-kB-dependent TNF-α secretion. Briefly: TNF-α secretion assay in THP-1 cells (counter screen, HTRF). Type of assay: cell-based. The conditions noted are these: Pam3CSK4-stimulated, 3 hours. The procedure: Monocytic THP-1 cells were maintained according to providers' instructions in RPMI media as described above. […] Experimental compounds were prepared and added as described above. TNF-α secretion was triggered by the addition of either 1 μg/mL LPS (Sigma, #L4391) or 100 ng/mL Pam3CSK4 (Invivogen, #tlrl-pms) depending on the experiment, and cells were incubated for 3 hours. 10 μL supernatant was removed, and TNF-α levels were monitored using an HTRF assay (CisBio, #62TNFPEC) according to manufacturers' instructions. Viability was monitored as described above.
IC50 values were calculated from the plot of percentage of inhibition versus the inhibitor concentration by a logistics fit according to: y=A2+(A1−A2)/(1+(x/IC50)^p) where y is the %-inhibition at the inhibitor concentration, x. A1 is the lowest inhibition value, i.e. 0%, and A2 the maximum inhibition value, i.e. 100%. The exponent, p, is the Hill coefficient. The curve fitting was conducted with an internally developed software suite. […]
Background: A counterscreen serves to expose hits that act by an unwanted route or on another target.

In a further assay the test system is NLRP3 inflammasome. Briefly: IL-1β secretion assay in PMA-differentiated THP-1 cells, nigericin-activated (HTRF). Type of assay: cell-based. The protocol: 10 μL supernatant was removed, and IL-1p levels were monitored using an HTRF assay (CisBio, #621L1PEC) according to manufacturers' instructions. Viability and pyroptosis was monitored with the addition of PrestoBlue cell viability reagent (Life Technologies, #A13261) directly to the cell culture plate.
IC50 values were calculated from the plot of percentage of inhibition versus the inhibitor concentration by a logistics fit according to: y=A2+(A1−A2)/(1+(x/IC50)^p) where y is the %-inhibition at the inhibitor concentration, x. A1 is the lowest inhibition value, i.e. 0%, and A2 the maximum inhibition value, i.e. 100%. The exponent, p, is the Hill coefficient. The curve fitting was conducted with an internally developed software suite.
NLRP3-dependent IL-1β secretion was stimulated in PMA-differentiated THP-1 cells by the addition of nigericin, and cytokines were measured in the […] after 3 hours. As discussed above, activation of the NLRP3 inflammasome requires both an NF-kB-dependent priming step and the addition of a NLRP3 activator.

The mark [2] stands for this setting: Homo sapiens, 15 μM nigericin, 3 hours, read-out: IL-1β IC50.

Turning to `Cc1cc(C(F)(F)F)cc(O)c1-c1ccc(NC[C@](C)(O)CO)nn1` [Ex 88a, (S)-3-((6-(2-Hydroxy-6-methyl-4-(trifluoromethyl)phenyl)pyridazin-3-yl)amino)-2-methylpropane-1,2-diol], the IC50 in assay [1] (Homo sapiens) was determined as 41000 nM; in the assay on NLRP3 inflammasome (setting [2]) it was 62.3 nM.

Take `Cc1cc(C(F)(F)F)cc(O)c1-c1ccc(NCc2ccccn2)nn1` [Ex 28, 3-Methyl-2-(6-((pyridin-2-ylmethyl)amino)pyridazin-3-yl)-5-(trifluoromethyl)phenol]: the figures for the IC50 (in assay [1] (Homo sapiens); in the assay on NLRP3 inflammasome (setting [2])) were above 100000 nM and 288 nM, respectively.

Take `Cc1cc(C(F)(F)F)cc(O)c1-c1ccc(NC[C@H]2CCCCN2CCO)nn1` [Ex 84a, (R)-2-(6-(((1-(2-Hydroxyethyl)piperidin-2-yl)methyl)amino)pyridazin-3-yl)-3-methyl-5-(trifluoromethyl)phenol]: the results for the IC50 (in assay [1] (Homo sapiens); in the assay with NLRP3 inflammasome (setting [2])) were above 100000 nM and 42.5 nM, respectively.

Consider `Cc1cc(C(F)(F)F)cc(O)c1-c1ccc(NC[C@@H]2CC(F)(F)CN2)nn1` [Ex 22, (S)-2-(6-(((4,4-Difluoropyrrolidin-2-yl)methyl)amino)pyridazin-3-yl)-3-methyl-5-(trifluoromethyl)phenol], for which the IC50 in assay [1] (Homo sapiens) was above 100000 nM; with NLRP3 inflammasome (setting [2]) it was 80.7 nM.

With `Cc1cc(C(F)(F)F)cc(O)c1-c1ccc(N[C@H]2C[C@@](C)(O)C2)nn1` [Ex 2, 2-(6-(((cis)-3-Hydroxy-3-methylcyclobutyl)amino)pyridazin-3-yl)-3-methyl-5-(trifluoromethyl)phenol], the IC50 in assay [1] (Homo sapiens) is above 100000 nM; in the assay on NLRP3 inflammasome (setting [2]), 10.2 nM.

On to `Cc1cc(C(F)(F)F)cc(O)c1-c1ccc(NC[C@@H]2CCCCN2CCO)nn1` [Ex 84b, (S)-2-(6-(((1-(2-Hydroxyethyl)piperidin-2-yl)methyl)amino)pyridazin-3-yl)-3-methyl-5-(trifluoromethyl)phenol], for which the values for the IC50 (in assay [1] (Homo sapiens); in the assay on NLRP3 inflammasome (setting [2])) were above 33000 nM and 53.3 nM, respectively.

On to `Cc1cc(C(F)(F)F)cc(O)c1-c1cc(C(F)(F)F)c(NCCO)nn1` [Ex 26, 2-(6-((2-Hydroxyethyl)amino)-5-(trifluoromethyl)pyridazin-3-yl)-3-methyl-5-(trifluoromethyl)phenol], for which the 50% inhibitory concentration (IC50) is above 100000 nM in assay [1] (Homo sapiens) and 165 nM with NLRP3 inflammasome (setting [2]).

Consider `Cc1cc(C(F)(F)F)cc(O)c1-c1ccc(NCC2(O)CCCC2)nn1` [Ex 98, 2-(6-(((1-Hydroxycyclopentyl)methyl)amino)pyridazin-3-yl)-3-methyl-5-(trifluoromethyl)phenol], for which the IC50 in assay [1] (Homo sapiens) is above 100000 nM; in the assay with NLRP3 inflammasome (setting [2]) it was 115 nM.

With `Cc1cc(C(F)(F)F)cc(O)c1-c1ccc(N[C@@H]2CC[C@@H]3CC[C@H]2N3CCO)nn1` [Ex 86b, 2-(6-(((1R,2R,5R)-8-(2-Hydroxyethyl)-8-azabicyclo[3.2.1]octan-2-yl)amino)pyridazin-3-yl)-3-methyl-5-(trifluoromethyl)phenol], the IC50 was above 100000 nM in assay [1] and 1.8 nM in the assay on NLRP3 inflammasome (read-out: IL-1β IC50, 15 μM nigericin, 3 hours).

For the compound `Cc1cc(C(F)(F)F)cc(O)c1-c1ccc(NC[C@H]2CCCN2)nn1` [Ex 14, (R)-3-Methyl-2-(6-((pyrrolidin-2-ylmethyl)amino)pyridazin-3-yl)-5-(trifluoromethyl)phenol], the figures for the IC50 (in assay [1] (Homo sapiens); in the assay with NLRP3 inflammasome (setting [2])) were above 100000 nM and 85.7 nM, respectively.

Take `Cc1cc(-c2c(C)cc(C(F)(F)F)cc2O)nnc1N[C@H]1C[C@@](C)(O)C1` [Ex 54, 2-(6-(((cis)-3-Hydroxy-3-methylcyclobutyl)amino)-5-methylpyridazin-3-yl)-3-methyl-5-(trifluoromethyl)phenol]: the values for the IC50 (in assay [1] (Homo sapiens); in the assay on NLRP3 inflammasome (setting [2])) were 35000 nM and 11.8 nM, respectively.

Regarding `Cc1cc(C(F)(F)F)cc(O)c1-c1ccc(NCC(O)(C(F)(F)F)C(F)(F)F)nn1` [Ex 10, 3-Methyl-2-(6-((3,3,3-trifluoro-2-hydroxy-2-(trifluoromethyl)propyl)amino)pyridazin-3-yl)-5-(trifluoromethyl)phenol], the IC50 was above 33000 nM in assay [1] (Homo sapiens) and 349 nM with NLRP3 inflammasome (setting [2]).

As for `Cc1cc(C(F)(F)F)cc(O)c1-c1ccc(NC[C@H]2CC(F)(F)CN2)nn1` [Ex 23, (R)-2-(6-(((4,4-Difluoropyrrolidin-2-yl)methyl)amino)pyridazin-3-yl)-3-methyl-5-(trifluoromethyl)phenol], the IC50 is above 100000 nM in assay [1] (Homo sapiens) and 93.4 nM in the assay with NLRP3 inflammasome (setting [2]).

Take `Cc1cc(C(F)(F)F)cc(O)c1-c1ccc(N[C@@H]2CCC[C@@H](O)C2)nn1` [Ex 58, 2-(6-(((1R,3R)-3-Hydroxycyclohexyl)amino)pyridazin-3-yl)-3-methyl-5-(trifluoromethyl)phenol]: the figures for the IC50 (in assay [1] (Homo sapiens); in the assay on NLRP3 inflammasome (setting [2])) were above 100000 nM and 58.4 nM, respectively.

Consider `Cc1cc(C(F)(F)F)cc(O)c1-c1ccc(N[C@@H]2CCC[C@H]2O)nn1` (relative stereo) [Ex 24, (trans)-2-(6-((2-Hydroxycyclopentyl)amino)pyridazin-3-yl)-3-methyl-5-(trifluoromethyl)phenol], for which the IC50 was 37000 nM in assay [1] (Homo sapiens) and 120 nM in the assay with NLRP3 inflammasome (setting [2]).

On to `Oc1cc(C(F)(F)F)cc(Cl)c1-c1ccc(N[C@H]2C[C@H](O)C2)nn1` [Ex 32, 3-Chloro-2-(6-((trans-3-hydroxycyclobutyl)amino)pyridazin-3-yl)-5-(trifluoromethyl)phenol], for which the results for the IC50 (in assay [1] (Homo sapiens); in the assay with NLRP3 inflammasome (setting [2])) were 85000 nM and 218 nM, respectively.

For the compound `Cc1cc(N[C@H]2C[C@@](C)(O)C2)nnc1-c1ccc(C(F)(F)F)cc1O` [Ex 55, 2-(6-(((cis)-3-Hydroxy-3-methylcyclobutyl)amino)-4-methylpyridazin-3-yl)-5-(trifluoromethyl)phenol], the IC50 was found to be 45000 nM in assay [1] (Homo sapiens) and 45.8 nM with NLRP3 inflammasome (setting [2]).

In the case of `Cc1cc(C)c(-c2ccc(NCCc3ccc(S(N)(=O)=O)cc3)nn2)c(O)c1` [Ex 103, 4-(2-((6-(2-Hydroxy-4,6-dimethylphenyl)pyridazin-3-yl)amino)ethyl)benzenesulfonamide], the IC50 in assay [1] (Homo sapiens) worked out at 16000 nM; in the assay on NLRP3 inflammasome (setting [2]), 136 nM.

On to `Cc1cc(C(F)(F)F)cc(O)c1-c1ccc(NCC(C)(C)N(C)C)nn1` [Ex 16, 2-(6-((2-(Dimethylamino)-2-methylpropyl)amino)pyridazin-3-yl)-3-methyl-5-(trifluoromethyl)phenol], for which the IC50 in assay [1] (Homo sapiens) is above 100000 nM; in the assay on NLRP3 inflammasome (setting [2]), 36.3 nM.

With `Cc1cc(C(F)(F)F)cc(O)c1-c1cc(C(F)(F)F)c(N[C@H]2C[C@@](C)(O)C2)nn1` [Ex 56, 2-(6-(((cis)-3-Hydroxy-3-methylcyclobutyl)amino)-5-(trifluoromethyl)pyridazin-3-yl)-3-methyl-5-(trifluoromethyl)phenol], the IC50 in assay [1] (Homo sapiens) was above 100000 nM; with NLRP3 inflammasome (setting [2]), 8.3 nM.

In assay [1] (Homo sapiens), `Cc1cc(C(F)(F)F)cc(O)c1-c1ccc(N[C@H]2CCCN[C@H]2C)nn1` [Ex 91a, 3-Methyl-2-(6-(((2S,3S)-2-methylpiperidin-3-yl)amino)pyridazin-3-yl)-5-(trifluoromethyl)phenol] yielded an IC50 above 100000 nM.

As to `Cc1cc(-c2c(C)cc(C(F)(F)F)cc2O)nnc1N[C@@H]1CCCN(C)C1=O` [Ex 102, (R)-3-((6-(2-Hydroxy-6-methyl-4-(trifluoromethyl)phenyl)-4-methylpyridazin-3-yl)amino)-1-methylpiperidin-2-one], the IC50 in the assay on NLRP3 inflammasome (setting [2]) amounted to 49 nM.

For `Cc1cc(C(F)(F)F)cc(O)c1-c1ccc(N[C@@H]2C[C@H](O)CN(C)C2)nn1` [Ex 97, (3S,5R)-5-((6-(2-Hydroxy-6-methyl-4-(trifluoromethyl)phenyl)pyridazin-3-yl)amino)-1-methylpiperidin-3-ol], the IC50 in assay [1] (Homo sapiens) is above 100000 nM.

As to `CN1CCC[C@@H](Nc2ccc(-c3c(O)cc(C(F)(F)F)cc3Cl)nn2)C1` [Ex 49, (R)-3-Chloro-2-(6-((1-methylpiperidin-3-yl)amino)pyridazin-3-yl)-5-(trifluoromethyl)phenol], in assay [1] (Homo sapiens), the IC50 is above 100000 nM.

`Cc1cc(-c2ccc(C(F)(F)F)cc2O)nnc1N[C@@H]1CCCN(C)C1` [Ex 65, (R)-2-(5-Methyl-6-((1-methylpiperidin-3-yl)amino)pyridazin-3-yl)-5-(trifluoromethyl)phenol] showed an IC50 in assay [1] (Homo sapiens) above 33000 nM.

In assay [1] (Homo sapiens), `Cc1cc(C(F)(F)F)cc(O)c1-c1ccc(N[C@H]2CC[C@H]3CC[C@@H]2N3C)nn1` (single isomer, unassigned) [Ex 85a] returned an IC50 above 100000 nM.

As for `Cc1cc(C(F)(F)F)cc(O)c1-c1ccc(N[C@H]2CC[C@H]3CC[C@@H]2N3CCO)nn1` (single isomer, unassigned) [Ex 86a], in assay [1] (Homo sapiens), the half-inhibitory concentration (IC50) was above 100000 nM.

Compound `Cc1cc(C(F)(F)F)cc(O)c1-c1nnc(N[C@@H]2CCCN(C)C2)c(C)c1C` [Ex 40, 2-(4,5-Dimethyl-6-(((R)-1-methylpiperidin-3-yl)amino)pyridazin-3-yl)-3-methyl-5-(trifluoromethyl)phenol TFA-salt] had an IC50 in assay [1] (Homo sapiens) above 33000 nM.
